Tests used:
RPMI-8226 = assay: NCI-60 SRB growth inhibition, one-dose and five-dose; format: cell-based; settings: Homo sapiens; for GI50: RPMI-8226; for inhibition at 10 µM: RPMI-8226, read-out: percent growth inhibition
EKVX = assay: as above; format: cell-based; settings: Homo sapiens; for inhibition at 10 µM: read-out: percent growth inhibition
NCI-H23 = assay: as above; format: cell-based; settings: Homo sapiens; for GI50: NCI-H23; for inhibition at 10 µM: NCI-H23, read-out: percent growth inhibition
HCC-2998 = assay: as above; format: cell-based; settings: Homo sapiens; for GI50: HCC 2998; for inhibition at 10 µM: HCC 2998, read-out: percent growth inhibition
HCT-116 = assay: as above; format: cell-based; settings: Homo sapiens; for GI50: HCT-116, HCT-116, five-dose screening; for inhibition at 10 µM: HCT-116, read-out: percent growth inhibition
HCT-15 = assay: as above; format: cell-based; settings: Homo sapiens; for GI50: HCT-15; for inhibition at 10 µM: HCT-15, read-out: percent growth inhibition
KM12 = assay: as above; format: cell-based; settings: Homo sapiens; for GI50: KM12; for inhibition at 10 µM: KM12, read-out: percent growth inhibition
SK-MEL-2 = assay: as above; format: cell-based; settings: Homo sapiens; for GI50: SK-MEL-2; for inhibition at 10 µM: SK-MEL-2, read-out: percent growth inhibition
UACC-257 = assay: as above; format: cell-based; settings: Homo sapiens; for GI50: UACC-257; for inhibition at 10 µM: UACC-257, read-out: percent growth inhibition
OVCAR-3 = assay: as above; format: cell-based; settings: Homo sapiens; for GI50: OVCAR-3; for inhibition at 10 µM: OVCAR-3, read-out: percent growth inhibition
OVCAR-8 = assay: as above; format: cell-based; settings: Homo sapiens; for GI50: OVCAR-8; for inhibition at 10 µM: OVCAR-8, read-out: percent growth inhibition
ACHN = assay: as above; format: cell-based; settings: Homo sapiens; for inhibition at 10 µM: read-out: percent growth inhibition
CAKI-1 = assay: as above; format: cell-based; settings: Homo sapiens; for GI50: CAKI-1; for inhibition at 10 µM: CAKI-1, read-out: percent growth inhibition
SN12C = assay: as above; format: cell-based; settings: Homo sapiens; for inhibition at 10 µM: read-out: percent growth inhibition
UO-31 = assay: as above; format: cell-based; settings: Homo sapiens; for GI50: UO-31
MCF7 = assay: as above; format: cell-based; settings: Homo sapiens; for GI50: MCF7; for inhibition at 10 µM: MCF7, read-out: percent growth inhibition
MDA-MB-231/ATCC = assay: as above; format: cell-based; settings: Homo sapiens; for GI50: MDA-MB-231
T-47D = assay: as above; format: cell-based; settings: Homo sapiens, T47D; for inhibition at 10 µM: read-out: percent growth inhibition
[1] = tested on: NCI 60-cell line panel (full panel); assay: NCI-60 SRB growth inhibition, full panel mean / MG-MID; format: cell-based, human; settings: for GI50: Homo sapiens, 60 cell, read-out: Full panel GI50 mean; for Full panel Mean GI %: mean over NCI-60 panel, single dose 10 µM
Leukaemia cell lines = assay: NCI-60 SRB growth inhibition, subpanel; format: cell-based, human; settings: Homo sapiens, read-out: GI50 MG-MID
NSCLC cell lines = assay: NCI-60 SRB growth inhibition, subpanel; format: cell-based, human; settings: Homo sapiens, read-out: GI50 MG-MID
Colon cancer cell lines = assay: NCI-60 SRB growth inhibition, subpanel; format: cell-based, human; settings: Homo sapiens, read-out: GI50 MG-MID
CNS cancer cell lines = assay: NCI-60 SRB growth inhibition, subpanel; format: cell-based, human; settings: Homo sapiens, read-out: GI50 MG-MID
Melanoma cell lines = assay: NCI-60 SRB growth inhibition, subpanel; format: cell-based, human; settings: Homo sapiens, read-out: GI50 MG-MID
[2] = tested on: Ovarian cancer cell lines; assay: NCI-60 SRB growth inhibition, subpanel; format: cell-based, human; settings: Homo sapiens, read-out: GI50 MG-MID
Renal cancer cell lines = assay: NCI-60 SRB growth inhibition, subpanel; format: cell-based, human; settings: Homo sapiens, read-out: GI50 MG-MID
[3] = tested on: Prostate cancer cell lines; assay: NCI-60 SRB growth inhibition, subpanel; format: cell-based, human; settings: Homo sapiens, read-out: GI50 MG-MID
Breast cancer cell lines = assay: NCI-60 SRB growth inhibition, subpanel; format: cell-based, human; settings: Homo sapiens, read-out: GI50 MG-MID
[4] = Cytotoxicity towards normal fibroblasts, safety index; format: cell-based, human; settings: human, WI-38 normal fibroblast cells
[5] = tested on: WI-38 normal human fibroblast cells; assay: as above; format: cell-based; settings: WI-38 versus cancer cell lines
Human VEGFR-2 = Human VEGFR-2 (Homo sapiens, UniProt P35968); assay: VEGFR-2 inhibition assay; format: biochemical
Human VEGFR-2, sequence (P35968 20-1356): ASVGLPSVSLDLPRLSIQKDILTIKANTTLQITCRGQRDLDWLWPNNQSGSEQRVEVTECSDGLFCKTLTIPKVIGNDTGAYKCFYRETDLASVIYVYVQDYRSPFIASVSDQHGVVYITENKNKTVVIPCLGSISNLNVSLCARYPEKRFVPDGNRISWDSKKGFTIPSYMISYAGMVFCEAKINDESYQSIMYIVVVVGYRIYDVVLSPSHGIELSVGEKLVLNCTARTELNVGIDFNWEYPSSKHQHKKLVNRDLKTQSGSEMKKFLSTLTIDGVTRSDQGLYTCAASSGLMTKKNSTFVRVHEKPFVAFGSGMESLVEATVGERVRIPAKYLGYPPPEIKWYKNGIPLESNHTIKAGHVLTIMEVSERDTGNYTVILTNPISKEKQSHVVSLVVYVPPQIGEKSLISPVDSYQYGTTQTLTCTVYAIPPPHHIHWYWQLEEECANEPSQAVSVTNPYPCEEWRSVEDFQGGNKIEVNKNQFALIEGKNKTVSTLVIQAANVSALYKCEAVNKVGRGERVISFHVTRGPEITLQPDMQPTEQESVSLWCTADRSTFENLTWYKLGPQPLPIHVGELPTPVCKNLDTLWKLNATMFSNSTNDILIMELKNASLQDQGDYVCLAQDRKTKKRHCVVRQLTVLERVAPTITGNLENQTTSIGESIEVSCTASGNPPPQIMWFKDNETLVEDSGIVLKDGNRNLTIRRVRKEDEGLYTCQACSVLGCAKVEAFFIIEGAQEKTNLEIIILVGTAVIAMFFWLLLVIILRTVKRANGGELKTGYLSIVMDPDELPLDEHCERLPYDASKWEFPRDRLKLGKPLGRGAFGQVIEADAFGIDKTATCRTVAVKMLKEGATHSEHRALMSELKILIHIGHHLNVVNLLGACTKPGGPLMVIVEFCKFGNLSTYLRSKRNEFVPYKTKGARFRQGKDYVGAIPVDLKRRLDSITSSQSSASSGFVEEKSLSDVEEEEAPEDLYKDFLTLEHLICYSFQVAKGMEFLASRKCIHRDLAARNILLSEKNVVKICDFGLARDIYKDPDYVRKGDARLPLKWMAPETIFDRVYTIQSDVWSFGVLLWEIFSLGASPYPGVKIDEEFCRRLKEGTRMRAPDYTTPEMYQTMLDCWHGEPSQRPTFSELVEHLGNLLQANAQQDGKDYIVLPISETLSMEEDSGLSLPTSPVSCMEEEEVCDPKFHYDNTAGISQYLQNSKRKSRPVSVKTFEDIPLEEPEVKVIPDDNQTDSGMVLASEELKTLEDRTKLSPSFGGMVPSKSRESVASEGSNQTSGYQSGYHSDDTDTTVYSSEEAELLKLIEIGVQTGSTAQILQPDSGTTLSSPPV

SMILES: CC(=O)Nc1ccc(/C=C/C(=O)c2cccc(NCc3ccc(CO)cc3)c2)cc1 [Compound 5j, (E)-N-(4–(3-(3-((4-(hydroxymethyl)benzyl)amino)phenyl)-3-oxoprop-1-en-1-yl)phenyl) acetamide]
- GI50 (RPMI-8226): 2.84 µM
- inhibition at 10 µM (RPMI-8226): 134%
- GI50 (EKVX): 14.4 µM
- inhibition at 10 µM (EKVX): 88.9%
- GI50 (NCI-H23): 13.9 µM
- inhibition at 10 µM (NCI-H23): 95.9%
- GI50 (HCC-2998): 13.2 µM
- inhibition at 10 µM (HCC-2998): 199%
- GI50 (HCT-116): 3.35 µM
- inhibition at 10 µM (HCT-116): 193%
- GI50 (HCT-15): 4.63 µM
- inhibition at 10 µM (HCT-15): 140%
- GI50 (KM12): 3.93 µM
- inhibition at 10 µM (KM12): 158%
- GI50 (SK-MEL-2): 15.3 µM
- inhibition at 10 µM (SK-MEL-2): 53.9%
- GI50 (UACC-257): 11.7 µM
- inhibition at 10 µM (UACC-257): 135%
- GI50 (OVCAR-3): 4.63 µM
- inhibition at 10 µM (OVCAR-3): 138%
- GI50 (OVCAR-8): 14.8 µM
- inhibition at 10 µM (OVCAR-8): 130%
- GI50 (ACHN): 10.3 µM
- inhibition at 10 µM (ACHN): 155%
- GI50 (CAKI-1): 14.8 µM
- inhibition at 10 µM (CAKI-1): 134%
- inhibition at 10 µM (SN12C): 149%
- GI50 (UO-31): 10.7 µM
- GI50 (MCF7): 3.19 µM
- inhibition at 10 µM (MCF7): 126%
- GI50 (MDA-MB-231/ATCC): 6.79 µM
- GI50 (T-47D): 13.5 µM
- inhibition at 10 µM (T-47D): 70.2%
- GI50 [1]: 10.3 µM
- Full panel Mean GI % [1]: 120.44%
- GI50 (Leukaemia cell lines): 5.36 µM
- GI50 (NSCLC cell lines): 13.9 µM
- GI50 (Colon cancer cell lines): 7.35 µM
- GI50 (CNS cancer cell lines): 10.1 µM
- GI50 (Melanoma cell lines): 11.5 µM
- GI50 [2]: 12.4 µM
- GI50 (Renal cancer cell lines): 13.3 µM
- GI50 [3]: 8.67 µM
- GI50 (Breast cancer cell lines): 10.1 µM
- GI50 at 48 h [4]: > 100 µM
- Safety index [5]: >1
- IC50 (Human VEGFR-2): 0.82 ± 0.016 µM

SMILES: CC(=O)Nc1ccc(/C=C/C(=O)c2cccc(NCc3ccc(C)cc3)c2)cc1 [Compound 5f, (E)-N-(4–(3-(3-((4-methylbenzyl)amino)phenyl)-3-oxoprop-1-en-1-yl)phenyl)acetamide]
- GI50 (RPMI-8226): 2.29 µM
- inhibition at 10 µM (RPMI-8226): 105%
- GI50 (EKVX): 12.6 µM
- inhibition at 10 µM (EKVX): 20.9%
- GI50 (NCI-H23): 10.4 µM
- inhibition at 10 µM (NCI-H23): 26.2%
- GI50 (HCC-2998): 13.9 µM
- inhibition at 10 µM (HCC-2998): 15.2%
- GI50 (HCT-116): 1.91 µM
- inhibition at 10 µM (HCT-116): 179%
- GI50 (HCT-15): 3.31 µM
- inhibition at 10 µM (HCT-15): 113%
- GI50 (KM12): 7.04 µM
- inhibition at 10 µM (KM12): 136%
- GI50 (SK-MEL-2): 11.5 µM
- inhibition at 10 µM (SK-MEL-2): 16.5%
- GI50 (UACC-257): 14.2 µM
- inhibition at 10 µM (UACC-257): 15.7%
- GI50 (OVCAR-3): 3.19 µM
- inhibition at 10 µM (OVCAR-3): 78%
- GI50 (OVCAR-8): 2.98 µM
- inhibition at 10 µM (OVCAR-8): 88.1%
- GI50 (ACHN): 13.2 µM
- inhibition at 10 µM (ACHN): 65%
- GI50 (CAKI-1): 10.8 µM
- inhibition at 10 µM (CAKI-1): 23.2%
- GI50 (SN12C): 7.76 µM
- inhibition at 10 µM (SN12C): 88%
- GI50 (UO-31): 6.78 µM
- inhibition at 10 µM (UO-31; UO-31, read-out: percent growth inhibition): 50.2%
- GI50 (MCF7): 3.37 µM
- inhibition at 10 µM (MCF7): 90.5%
- GI50 (MDA-MB-231/ATCC): 3.7 µM
- inhibition at 10 µM (MDA-MB-231/ATCC; MDA-MB-231, read-out: percent growth inhibition): 89.4%
- GI50 (T-47D): 10.2 µM
- inhibition at 10 µM (T-47D): 86.5%
- GI50 [1]: 9.25 µM
- Full panel Mean GI % [1]: 61.75%
- GI50 (Leukaemia cell lines): 2.73 µM
- GI50 (NSCLC cell lines): 13.4 µM
- GI50 (Colon cancer cell lines): 7.86 µM
- GI50 (CNS cancer cell lines): 9.73 µM
- GI50 (Melanoma cell lines): 10.5 µM
- GI50 [2]: 10.5 µM
- GI50 (Renal cancer cell lines): 11.4 µM
- GI50 [3]: 10.1 µM
- GI50 (Breast cancer cell lines): 7.03 µM
- GI50 at 48 h [4]: > 100 µM
- Safety index [5]: >1
- IC50 (Human VEGFR-2): 0.89 ± 0.009 µM

From article PMC11003488 (Journal of Enzyme Inhibition and Medicinal Chemistry, 2023)
